Laboratory results from PubChem BioAssay AID1919015 (Molecular Pharmacology Branch, DTP, NCI, 2023).

System: OVCAR-5 complex spheroids with HUVEC/MSC, viability, % test/control
Test: Anticancer human tumor OVCAR-5 cell line growth inhibition [AhR];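 note: spheroids exposed to compounds for 7 days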;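 for viability, T/C: 100% = DMSO vehicle control wells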
Conditions: for IC50: curve of first compound; for viability, T/C: stronger effect = lower value
Outline: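 Complex tumor spheroids co-cultured with HUVEC and human MSC stroma; AhR antagonists tested in combination with standard-of-care and investigational agents. Top concentration at or near clinical Cmax (else 10 microM), half-log dilutions; growth expressed as percent test/control.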

[1] = second compound 0.1 µM, first compound 0.00316 µM
[2] = second compound 0.1 µM, first compound 0.01 µM
[3] = second compound 0.1 µM, first compound 0.0316 µM
[4] = second compound 0.1 µM, first compound 0.1 µM
[5] = second compound 0.316 µM, first compound 0.00316 µM
[6] = second compound 0.316 µM, first compound 0.01 µM
[7] = second compound 0.316 µM, first compound 0.0316 µM
[8] = second compound 0.316 µM, first compound 0.1 µM
[9] = second compound 1 µM, first compound 0.00316 µM
[10] = second compound 1 µM, first compound 0.01 µM
[11] = second compound 1 µM, first compound 0.0316 µM
[12] = second compound 1 µM, first compound 0.1 µM
[13] = second compound 3.16 µM, first compound 0.00316 µM
[14] = second compound 3.16 µM, first compound 0.01 µM
[15] = second compound 3.16 µM, first compound 0.0316 µM
[16] = second compound 3.16 µM, first compound 0.1 µM
[17] = second compound 10 µM, first compound 0.00316 µM
[18] = second compound 10 µM, first compound 0.01 µM
[19] = second compound 10 µM, first compound 0.0316 µM
[20] = second compound 10 µM, first compound 0.1 µM
[21] = second compound 0.1 µM, first compound 0.000316 µM
[22] = second compound 0.1 µM, first compound 0.001 µM
[23] = second compound 0.316 µM, first compound 0.000316 µM
[24] = second compound 0.316 µM, first compound 0.001 µM
[25] = second compound 1 µM, first compound 0.000316 µM
[26] = second compound 1 µM, first compound 0.001 µM
[27] = second compound 3.16 µM, first compound 0.000316 µM
[28] = second compound 3.16 µM, first compound 0.001 µM
[29] = second compound 10 µM, first compound 0.000316 µM
[30] = second compound 10 µM, first compound 0.001 µM

Nc1ncn(C2CC(O)C(CO)O2)c(=O)n1 (stereo not given) + Cc1ccccc1N=Nc1ccc(NC(=O)c2ccnn2C)c(C)c1 gave an IC50 (second compound 0.1 µM) of over 1000 nM, an IC50 (second compound 0.316 µM) of over 1000 nM and an IC50 (second compound 1 µM) of over 1000 nM. The IC50 (second compound 3.16 µM) was over 1000 nM, the IC50 (second compound 10 µM) was over 1000 nM and the viability, T/C [1] was 99%. It also gave a viability, T/C [2] of 98.3%, a viability, T/C [3] of 88.3% and a viability, T/C [4] of 76.4%. For the same molecule, the viability, T/C (second compound 0.1 µM, first compound 0.316 µM) was 65%, the viability, T/C (second compound 0.1 µM, first compound 1 µM) was 64.5% and the viability, T/C [5] was 104%. It also gave a viability, T/C [6] of 104%, a viability, T/C [7] of 94.3% and a viability, T/C [8] of 79.6%. It also gave a viability, T/C (second compound 0.316 µM, first compound 0.316 µM) of 69.3%, a viability, T/C (second compound 0.316 µM, first compound 1 µM) of 59.2% and a viability, T/C [9] of 108%. For the same molecule, the viability, T/C [10] was 105%, the viability, T/C [11] was 98.2% and the viability, T/C [12] was 81.4%. It also gave a viability, T/C (second compound 1 µM, first compound 0.316 µM) of 68.9%, a viability, T/C (second compound 1 µM, first compound 1 µM) of 62% and a viability, T/C [13] of 105%. It also gave a viability, T/C [14] of 109%, a viability, T/C [15] of 100% and a viability, T/C [16] of 85.9%. It also gave a viability, T/C (second compound 3.16 µM, first compound 0.316 µM) of 72%, a viability, T/C (second compound 3.16 µM, first compound 1 µM) of 62.2% and a viability, T/C [17] of 104%. It also gave a viability, T/C [18] of 109%, a viability, T/C [19] of 100% and a viability, T/C [20] of 82.5%. It also gave a viability, T/C (second compound 10 µM, first compound 0.316 µM) of 68.1% and a viability, T/C (second compound 10 µM, first compound 1 µM) of 61.4%.
Cn1ncnc1C1c2n[nH]c(=O)c3cc(F)cc(c23)NC1c1ccc(F)cc1 (stereo not given) + Cc1cncc(-c2nc(NCCc3c[nH]c4ccccc34)c3ncn(C(C)C)c3n2)c1 showed an IC50 (second compound 0.1 µM) of over 100 nM, an IC50 (second compound 0.316 µM) of over 100 nM and an IC50 (second compound 1 µM) of over 100 nM. The IC50 (second compound 3.16 µM) was over 100 nM, the IC50 (second compound 10 µM) was under 0.316 nM and the viability, T/C [21] was 99.4%. For the same molecule, the viability, T/C [22] was 102%, the viability, T/C [1] was 103% and the viability, T/C [2] was 104%. The viability, T/C [3] was 101%, the viability, T/C [4] was 99.2% and the viability, T/C [23] was 101%. The viability, T/C [24] was 104%, the viability, T/C [5] was 100% and the viability, T/C [6] was 99.2%. The viability, T/C [7] was 99.4%, the viability, T/C [8] was 95.2% and the viability, T/C [25] was 98.1%. For the same molecule, the viability, T/C [26] was 97.9%, the viability, T/C [9] was 95.8% and the viability, T/C [10] was 96.4%. For the same molecule, the viability, T/C [11] was 94.6%, the viability, T/C [12] was 93.6% and the viability, T/C [27] was 85%. For the same molecule, the viability, T/C [28] was 87.3%, the viability, T/C [13] was 86.3% and the viability, T/C [14] was 87.7%. It also gave a viability, T/C [15] of 83.4%, a viability, T/C [16] of 89.5% and a viability, T/C [29] of 26.6%. The viability, T/C [30] was 28.5%, the viability, T/C [17] was 30.9% and the viability, T/C [18] was 27.2%. For the same molecule, the viability, T/C [19] was 23% and the viability, T/C [20] was 30.7%.
In the case of CC[C@@]1(O)C(=O)OCc2c1cc1n(c2=O)Cc2cc3c(CN(C)C)c(O)ccc3nc2-1 + CC(CO)NC(=O)c1cc(-c2ccc(Cl)cc2)nn(-c2cnn(C)c2)c1=O, the IC50 (second compound 0.1 µM) is reported as over 100 nM, the IC50 (second compound 0.316 µM) is reported as over 100 nM and the IC50 (second compound 1 µM) is reported as over 100 nM. The IC50 (second compound 3.16 µM) was over 100 nM, the IC50 (second compound 10 µM) was over 100 nM and the viability, T/C [21] was 112%. The viability, T/C [22] was 105%, the viability, T/C [1] was 105% and the viability, T/C [2] was 94.9%. It also gave a viability, T/C [3] of 61.9%, a viability, T/C [4] of 50.9% and a viability, T/C [23] of 111%. For the same molecule, the viability, T/C [24] was 110%, the viability, T/C [5] was 106% and the viability, T/C [6] was 99.5%. It also gave a viability, T/C [7] of 59%, a viability, T/C [8] of 54.2% and a viability, T/C [25] of 119%. For the same molecule, the viability, T/C [26] was 119%, the viability, T/C [9] was 112% and the viability, T/C [10] was 107%. It also gave a viability, T/C [11] of 59%, a viability, T/C [12] of 56.4% and a viability, T/C [27] of 100%. It also gave a viability, T/C [28] of 102%, a viability, T/C [13] of 105% and a viability, T/C [14] of 93.9%. It also gave a viability, T/C [15] of 52.9%, a viability, T/C [16] of 55.4% and a viability, T/C [29] of 99.9%. It also gave a viability, T/C [30] of 103%, a viability, T/C [17] of 100% and a viability, T/C [18] of 87.4%. The viability, T/C [19] was 54.9% and the viability, T/C [20] was 62.8%.
Molecule Cn1ncnc1C1c2n[nH]c(=O)c3cc(F)cc(c23)NC1c1ccc(F)cc1 (stereo not given) + Cc1ccccc1N=Nc1ccc(NC(=O)c2ccnn2C)c(C)c1 has an IC50 (second compound 0.1 µM) of over 100 nM, an IC50 (second compound 0.316 µM) of over 100 nM and an IC50 (second compound 1 µM) of over 100 nM. It also gave an IC50 (second compound 3.16 µM) of over 100 nM, an IC50 (second compound 10 µM) of over 100 nM and a viability, T/C [21] of 105%. The viability, T/C [22] was 107%, the viability, T/C [1] was 101% and the viability, T/C [2] was 96.2%. It also gave a viability, T/C [3] of 94.5%, a viability, T/C [4] of 90.9% and a viability, T/C [23] of 108%. It also gave a viability, T/C [24] of 110%, a viability, T/C [5] of 104% and a viability, T/C [6] of 102%. For the same molecule, the viability, T/C [7] was 96.6%, the viability, T/C [8] was 98.8% and the viability, T/C [25] was 111%. The viability, T/C [26] was 113%, the viability, T/C [9] was 111% and the viability, T/C [10] was 102%. The viability, T/C [11] was 101%, the viability, T/C [12] was 102% and the viability, T/C [27] was 110%. It also gave a viability, T/C [28] of 116%, a viability, T/C [13] of 118% and a viability, T/C [14] of 109%. It also gave a viability, T/C [15] of 101%, a viability, T/C [16] of 108% and a viability, T/C [29] of 106%. It also gave a viability, T/C [30] of 105%, a viability, T/C [17] of 102% and a viability, T/C [18] of 105%. The viability, T/C [19] was 102% and the viability, T/C [20] was 102%.
